Test results reported in paper PMC9781010, “Polyphenolic Compounds Isolated from Marine Algae Attenuate the Replication of SARS-CoV-2 in the Host Cell through a Multi-Target Approach of 3CL^pro and PL^pro” (Marine Drugs, 2022).
Like-named read-outs stand apart in the source and are kept apart here.

Assays:
3CL^pro (SARS-CoV-2) = 3CL^pro (SARS-CoV-2) (Severe acute respiratory syndrome coronavirus 2, UniProt P0DTD1); assay: biochemical; assay type: biochemical; settings: for Mode of inhibition (Lineweaver–Burk plot): 3CL^pro, Vmax unchanged, Km increased with inhibitor concentration
PL^pro (SARS-CoV-2) = PL^pro (SARS-CoV-2) (Severe acute respiratory syndrome coronavirus 2, UniProt P0DTD1); assay: biochemical; assay type: biochemical; settings: for Mode of inhibition (Lineweaver–Burk plot): PL^pro, Vmax unchanged, Km increased with inhibitor concentration
3CL^pro [1] = molecular target: 3CL^pro (UniProt P08659+P0DTD1); assay: Cell-based 3CLpro cleavage inhibition assay (dual luciferase, Vero-E6 cells); set-up: species or system SARS-CoV-2; settings: cell-based
3CL^pro [2] = molecular target: 3CL^pro (UniProt P0DTD1); assay: as above; set-up: species or system SARS-CoV-2
PL^pro [3] = molecular target: PL^pro (UniProt P08659+P0DTD1); assay: Cell-based PLpro cleavage inhibition assay (dual luciferase, Vero-E6 cells); set-up: species or system SARS-CoV-2; settings: cell-based
PL^pro [4] = molecular target: PL^pro (UniProt P0DTD1); assay: as above; set-up: species or system SARS-CoV-2
SARS-CoV-2 = assay: Cytopathic effect (CPE) reduction assay; assay type: cell-based; settings: for CPE reduction / inhibitory activity against SARS-CoV-2 (in words): no concentration stated
Description: The CPE reduction assay was performed according to the previously reported method. Briefly, the cells were seeded with 5 × 10^4 cells/well in a 96-well plate and incubated at 37 °C for 48 h. A total of 100 µL of the virus was treated in each well using DMEM media that was FBS free and 1% antibiotic to infect a 0.01 multiplicity of infection (MOI) and incubated for an additional 1 h at 37 °C. Subsequently, the infected cells were treated with samples after removing the virus and 72 h of incubation was performed, and the MTT solution was added and allowed to stand for a 4 h incubation period. The formazan crystals were dissolved and the absorbance was measured.

[5] = cell-free cleavage of 3CL^pro, fluorogenic substrate, read-out: IC50 Value
[6] = cell-free cleavage of PL^pro, fluorogenic substrate, read-out: IC50 Value
[7] = at 6.25 µM, compared to Dieckol

PL^pro (UniProt P0DTD1), sequence (P08659 whole entry, looked up, other chains not shown): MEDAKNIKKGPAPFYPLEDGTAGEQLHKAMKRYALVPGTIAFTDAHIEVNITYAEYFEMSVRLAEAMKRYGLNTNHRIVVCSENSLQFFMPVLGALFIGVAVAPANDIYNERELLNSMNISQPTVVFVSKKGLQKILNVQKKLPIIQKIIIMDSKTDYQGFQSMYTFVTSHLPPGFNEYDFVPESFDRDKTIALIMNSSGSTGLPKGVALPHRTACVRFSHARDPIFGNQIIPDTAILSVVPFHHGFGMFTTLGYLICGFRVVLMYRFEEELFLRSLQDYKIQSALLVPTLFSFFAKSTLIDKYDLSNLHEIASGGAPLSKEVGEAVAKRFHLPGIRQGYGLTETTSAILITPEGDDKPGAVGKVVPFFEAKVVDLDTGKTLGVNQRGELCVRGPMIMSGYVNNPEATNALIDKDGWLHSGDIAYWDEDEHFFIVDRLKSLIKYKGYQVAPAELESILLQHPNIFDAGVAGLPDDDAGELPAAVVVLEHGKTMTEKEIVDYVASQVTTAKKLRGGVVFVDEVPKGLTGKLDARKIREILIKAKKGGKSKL
3CL^pro (UniProt P0DTD1), sequence (P08659 whole entry, looked up, other chains not shown): as above
3CL^pro (UniProt P08659+P0DTD1), sequence (P08659 whole entry, looked up, other chains not shown): as above
PL^pro (UniProt P08659+P0DTD1), sequence (P08659 whole entry, looked up, other chains not shown): as above

Row | Compound | Mode of inhibition (Lineweaver–Burk plot) (3CL^pro (SARS-CoV-2)) | IC50 (3CL^pro (SARS-CoV-2); [5]) [µM] | Mode of inhibition (Lineweaver–Burk plot) (PL^pro (SARS-CoV-2)) | IC50 (PL^pro (SARS-CoV-2); [6]) [µM] | Concentrations with significant and dose-dependent inhibitory activity (3CL^pro [1]) [µM] | Cell-based inhibitory activity against proteolytic activity (in words) (3CL^pro [2]) | Concentrations with significant and dose-dependent inhibitory activity (PL^pro [3]) [µM] | Cell-based inhibitory activity against proteolytic activity (in words) (PL^pro [4]) | CPE reduction activity (SARS-CoV-2; [7]) | CPE reduction / inhibitory activity against SARS-CoV-2 (in words) (SARS-CoV-2) | CPE reduction activity (SARS-CoV-2; at 25 µM) | IC50 (3CL^pro (SARS-CoV-2)) [µM] | IC50 (PL^pro (SARS-CoV-2)) [µM]
1 | Oc1cc(O)cc(Oc2cc(O)c(Oc3c(O)cc(O)cc3Oc3cc(O)c(Oc4cc(O)cc(O)c4Oc4cc(O)cc(O)c4Oc4cc(O)cc(O)c4Oc4cc(O)c(Oc5c(O)cc(O)cc5Oc5c(O)cc(Oc6c(O)cc(Oc7c(O)cc(Oc8c(O)cc(Oc9c(O)cc(Oc%10c(O)cc(Oc%11c(O)cc(O)cc%11O)cc%10O)cc9O)cc8O)cc7O)cc6O)cc5O)c(O)c4)c(O)c3)c(O)c2)c1 [Ishophloroglucin A] | competitive inhibitors | 0.481 ± 0.031 | competitive inhibitors | 1.405 ± 0.007 | 6.29 to 75.52 | greatest inhibitory activity | 12.59 to 75.52 | greatest inhibitory activity | great CPE reduction activity |  |  |  | 
2 | Oc1cc(O)c(Oc2cc(O)cc(O)c2-c2c(O)cc(O)cc2Oc2c(O)cc(O)cc2Oc2c(O)cc(O)c3c2Oc2c(O)cc(O)cc2O3)c(O)c1 [Eckmaxol] | competitive inhibitors | 1.89 ± 0.078 | competitive inhibitors | 19.83 ± 0.121 |  | significant and dose-dependent inhibitory activities |  | significant and dose-dependent inhibitory activities | great CPE reduction activity | greater activities than IPA |  |  | 
3 | Oc1cc(O)cc(Oc2c(O)cc3c(c2O)Oc2cc(Oc4c(O)cc(O)cc4O)c(O)c(O)c2O3)c1 [Diphlorethohydroxycarmalol] | competitive inhibitors | 3.12 ± 0.066 | competitive inhibitors | 6.637 ± 0.056 |  | significant and dose-dependent inhibitory activities |  | significant and dose-dependent inhibitory activities | great CPE reduction activity | greater activities than IPA | greatest CPE reduction activity |  | 
4 | Oc1cc(O)cc(Oc2c(O)cc(O)c3c2Oc2c(O)cc(Oc4c(O)cc(Oc5c(O)cc(O)c6c5Oc5c(O)cc(O)cc5O6)cc4O)cc2O3)c1 [Dieckol] | competitive inhibitors |  | competitive inhibitors |  |  | significant and dose-dependent inhibitory activities |  | significant and dose-dependent inhibitory activities |  | dose-dependent inhibitory activity |  | 5.49 ± 0.092 | 19.74 ± 0.09
